For data set [1], the system named is tumour derived from mouse colon cancer cell line Colon26 [マウス結腸癌細胞株であるColon26細胞由来の腫瘍]. In words: Tumour growth suppression in mouse colon cancer model (Example 2). The settings on record: sodium salt of Reference Example 72; BALB/c mice, male, Colon26 tumour s.c.; 20 mg/kg i.v. once daily day 0-3; n=7; day 3. The format is in vivo.
Data set [2] in a line: Body weight and side effects in mouse colon cancer model (Example 2). It is filed as in vivo. To be noted: sodium salt of Reference Example 72, 20 mg/kg i.v. once daily day 0-3.

As for `O=C(O)Cc1ccn(-c2cncc(-n3ncc4ccc(NC5CCCC5)cc43)n2)c1` [参考例72, 2-(1-(6-(6-(シクロペンチルアミノ)-1H-インダゾール-1-イル)ピラジン-2-イル)-1H-ピロール-3-イル)酢酸, ナトリウム塩], the “suppression of estimated tumour volume compared with control group” value in data set [1] is recorded as 29%. For the same molecule, the “body weight difference between treated and control group” value in data set [2] (n=7, day 4, result in words) is reported as “差は認められなかった”. Besides, in data set [2] (BALB/c mice with Colon26 tumour, n=7, weighed day 4, control group 22.9±0.5 g), the body weight worked out at 22.7 ± 0.5 g. Besides, the side effects entry in data set [2] (mouse, individual level, concluded from body weight, result in words) is “副作用を示すことなく”.

The values are drawn from JP2008208074A, “ピラジン誘導体を有効成分とする抗がん剤” (Toray Industries Inc, priority 2007, dated 2008).
